Experimental data taken from patent US20230226007A1, “NANOPARTICULATE COMPOSITION” (Algiax Pharmaceuticals GmbH, priority 2020, published 2023).

Assay: Solubility of AP-325 in different solvents at ambient temperature
Assay type: physicochemical
Text: AP-325 is a pharmaceutical agent, which is currently in clinical development. […] For a better characterization of active ingredients with low solubility, a classification according to the BCS system (=Biopharmaceutics Classification System) was introduced (Guidance for Industry: Immediate release solid oral dosage forms and FDA, 1995). This BCS system distinguishes four categories based on the solubility and permeability of the active substance. At a pH value of below 7 AP-325 can be classified as a BCS class II drug substance. The low solubility of AP-325 negatively affects the absorption into the body after oral administration due to a limited absorption of the active agent in the small intestine (such as the jejunum or ileum), which is an essential absorption window for the uptake of a drug. Consequently, the therapeutic effect cannot be achieved.
FIG. 3: Solubility of AP-325 in different solvents at ambient temperature.

With `Cc1cc(NC(=O)/C(C#N)=C(\O)C2CC2)ccc1C(F)(F)F` [AP-325] the BCS classification (pH value of below 7) was “BCS class II” and the Solubility (physiological pH of 6.8 (phosphate buffer), ambient temperature) was “practically insoluble”.
